Results taken from patent US10577378B2, “EIF4A-inhibiting compounds and methods related thereto” (eFFECTOR Therapeutics, Inc., priority 2015, dated 2020).
Like-named read-outs stand apart in the source and are kept apart here.

System: MDA-MB-231 human breast cancer cells
Assay: Cell proliferation assay (CellTiter-Glo, 72 hours treatment)
Type: cell-based
Conditions: MDA-MB-231 cells, 72 hours at 37° C., CellTiter-Glo, read-out: MDA-MB-231 cell proliferation assay (IC50)
Procedure, shortened: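 IC50 categories: under 100 nM +++, 100–1000 nM ++, above 1000 nM +, derived by sigmoidal curve fitting of CellTiter-Glo luminescence. Cells plated at 2,500 per well, dosed the following day and exposed 72 h at 37 °C versus DMSO control.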

Row | SMILES | IC50 (Homo sapiens) | IC50
1 | COc1nc(Cl)cc2c1[C@]1(O)[C@H](O)[C@H](CN)[C@@H](c3ccccc3)[C@]1(c1ccc(Br)cc1)O2 (racemic) [292F, Rac-(5aR,6S,7S,8R,8aS)-7-(aminomethyl)-5a-(4-bromophenyl)-3-chloro-1-methoxy-6-phenyl-5a,6,7,8-tetrahydro-8aH-cyclopenta[4,5]furo[3,2-c]pyridine-8,8a-diol] | < 100 nM | –
2 | COc1nc(C#N)cc2c1[C@]1(O)[C@H](O)[C@H](CN)[C@@H](c3ccccc3)[C@]1(c1ccc(C#N)cc1)O2 (racemic) [293F, Rac-(5aR,6S,7S,8R,8aS)-7-(aminomethyl)-5a-(4-cyanophenyl)-8,8a-dihydroxy-1-methoxy-6-phenyl-5a,7,8,8a-tetrahydro-6H-cyclopenta[4,5]furo[3,2-c]pyridine-3-carbonitrile] | < 100 nM | –
3 | COc1nc(Cl)cc2c1[C@]1(O)[C@H](O)[C@H](CN)[C@@H](c3ccccc3)[C@]1(c1ccc(C#N)cc1)O2 (racemic) [294F, Rac-4-((5aR,6S,7S,8R,8aS)-7-(aminomethyl)-3-chloro-8,8a-dihydroxy-1-methoxy-6-phenyl-6,7,8,8a-tetrahydro-5aH-cyclopenta[4,5]furo[3,2-c]pyridin-5a-yl)benzonitrile] | < 100 nM | –
4 | COc1nc(Cl)cc2c1[C@]1(O)[C@H](O)[C@H](C(=O)O)[C@@H](c3ccccc3)[C@]1(c1ccc(Br)cc1)O2 (racemic) [295F, rac-(5aR,6S,7R,8R,8aS)-5a-(4-bromophenyl)-3-chloro-8,8a-dihydroxy-1-methoxy-6-phenyl-5a,7,8,8a-tetrahydro-6H-cyclopenta[4,5]furo[3,2-c]pyridine-7-carboxylic acid] | < 100 nM | –
5 | COc1cncc2c1[C@]1(O)[C@@H](CN3CC4(COC4)C3)[C@H](CO)[C@@H](c3ccccc3)[C@]1(c1ccc(Br)cc1)O2 (racemic) [compound 201, Rac-(4bR,5R,6R,7S,7aR)-5-((2-oxa-6-azaspiro[3.3]heptan-6-yl)methyl)-7a-(4-bromophenyl)-6-(hydroxymethyl)-4-methoxy-7-phenyl-5,6,7,7a-tetrahydro-4bH-cyclopenta[4,5]furo[2,3-c]pyridin-4b-ol] | < 100 nM | –
6 | CN(C)C(=O)[C@H]1[C@@H](O)[C@@]2(O)c3ncc(C#N)cc3O[C@@]2(c2ccc(C#N)cc2)[C@@H]1c1ccccc1 (single isomer, unassigned) [2F] | 100 to 1000 nM | –
7 | CN(C)C(=O)[C@H]1[C@@H](O)[C@@]2(O)c3ncc(Cl)cc3O[C@@]2(c2ccc(C#N)cc2)[C@@H]1c1ccccc1 (single isomer, unassigned) [3F] | < 100 nM | –
8 | COc1ccc([C@@]23Oc4cc(C#N)cnc4[C@]2(O)[C@H](O)[C@H](C(=O)N(C)C)[C@H]3c2ccccc2)cc1 (single isomer, unassigned) [4F] | 100 to 1000 nM | –
9 | COc1ccc([C@@]23Oc4cc(Cl)cnc4[C@]2(O)[C@H](O)[C@H](C(=O)N(C)C)[C@H]3c2ccccc2)cc1 (single isomer, unassigned) [5F] | 100 to 1000 nM | –
10 | COc1cnc2c(c1)O[C@@]1(c3ccc(C#N)cc3)[C@H](c3ccccc3)[C@@H](C(=O)N(C)C)[C@@H](O)[C@@]21O (single isomer, unassigned) [6F] | 100 to 1000 nM | –
11 | Cc1ccc([C@@]23Oc4cc(Cl)cnc4[C@]2(O)[C@H](O)[C@H](C(=O)N(C)C)[C@H]3c2ccccc2)cc1 (single isomer, unassigned) [7F] | 100 to 1000 nM | –
12 | CN(C)C(=O)[C@H]1[C@@H](O)[C@@]2(O)c3ncc(Cl)cc3O[C@@]2(c2ccc(C(F)(F)F)cc2)[C@@H]1c1ccccc1 (single isomer, unassigned) [8F] | 100 to 1000 nM | –
13 | CN(C)C(=O)[C@H]1[C@@H](O)[C@@]2(O)c3ncccc3O[C@@]2(c2ccc(C#N)cc2)[C@@H]1c1ccccc1 (single isomer, unassigned) [9F] | > 1000 nM | –
14 | CN(C)C(=O)[C@H]1[C@@H](O)[C@@]2(O)c3ncc(Cl)cc3O[C@@]2(c2ccc(F)cc2)[C@@H]1c1ccccc1 (single isomer, unassigned) [10F] | > 1000 nM | –
15 | CN(C)C(=O)[C@H]1[C@@H](O)[C@@]2(O)c3ncc(Cl)cc3O[C@@]2(c2ccc(Cl)cc2)[C@@H]1c1ccccc1 (single isomer, unassigned) [11F] | 100 to 1000 nM | –
16 | CN(C)C(=O)[C@H]1[C@@H](O)[C@@]2(O)c3ncc(Cl)cc3O[C@@]2(c2ccc(S(C)(=O)=O)cc2)[C@@H]1c1ccccc1 (single isomer, unassigned) [12F] | > 1000 nM | –
17 | CN(C)C(=O)[C@H]1[C@@H](O)[C@@]2(O)c3ncc(Cl)cc3O[C@@]2(c2ccc(C(F)F)cc2)[C@@H]1c1ccccc1 (single isomer, unassigned) [16F] | 100 to 1000 nM | –
18 | CN(C)C(=O)[C@H]1[C@@H](O)[C@@]2(O)c3ncc(Cl)cc3O[C@@]2(c2ccc(OC(F)(F)F)cc2)[C@@H]1c1ccccc1 (single isomer, unassigned) [17F] | 100 to 1000 nM | –
19 | N#Cc1ccc([C@@]23Oc4cc(Cl)cnc4[C@]2(O)[C@H](O)[C@H](C(N)=O)[C@H]3c2ccccc2)cc1 (single isomer, unassigned) [18F] | < 100 nM | –
20 | CNC(=O)[C@H]1[C@@H](O)[C@@]2(O)c3ncc(Cl)cc3O[C@@]2(c2ccc(C#N)cc2)[C@@H]1c1ccccc1 (single isomer, unassigned) [20F] | < 100 nM | –
21 | CN(C)C(=O)[C@H]1[C@@H](O)[C@@]2(O)c3nn(C)cc3O[C@@]2(c2ccc(C#N)cc2)[C@@H]1c1ccccc1 (single isomer, unassigned) [23F] | > 1000 nM | –
22 | COc1cncc2c1[C@]1(O)[C@H](O)[C@H](C(=O)N(C)C)[C@@H](c3ccccc3)[C@]1(c1ccc(C#N)cc1)O2 (single isomer, unassigned) [64F] | < 100 nM | –

Row | SMILES | IC50 (Homo sapiens) | IC50
23 | COc1cncc2c1[C@]1(O)[C@H](O)[C@H](CN(C)C)[C@@H](c3ccccc3)[C@]1(c1ccc(C#N)cc1)O2 (single isomer, unassigned) [66F] | < 100 nM | –
24 | COc1cncc2c1[C@]1(O)[C@H](O)[C@H](CN3CCNCC3)[C@@H](c3ccccc3)[C@]1(c1ccc(C#N)cc1)O2 (single isomer, unassigned) [67F] | 100 to 1000 nM | –
25 | CCN(CC)C[C@H]1[C@@H](O)[C@@]2(O)c3c(OC)cncc3O[C@@]2(c2ccc(C#N)cc2)[C@@H]1c1ccccc1 (single isomer, unassigned) [73F] | < 100 nM | –
26 | COc1cncc2c1[C@]1(O)[C@@H]3OC(=O)N[C@@H]3[C@@H](c3ccccc3)[C@]1(c1ccc(C#N)cc1)O2 (single isomer, unassigned) [81F] | < 100 nM | –
27 | N#Cc1ccc([C@@]23Oc4cc(Cl)cnc4[C@]2(O)[C@H](O)[C@H](S(=O)(=O)N2CCCC2)[C@H]3c2ccccc2)cc1 (single isomer, unassigned) [83F] | < 100 nM | –
28 | CN(C)C(=O)[C@H]1[C@@H](O)[C@@]2(O)c3ccncc3O[C@@]2(c2ccc(C#N)cc2)[C@@H]1c1ccccc1 (single isomer, unassigned) [95F] | 100 to 1000 nM | –
29 | CN(C)C(=O)[C@H]1[C@@H](O)[C@@]2(O)c3c(Cl)cncc3O[C@@]2(c2ccc(C#N)cc2)[C@@H]1c1ccccc1 (single isomer, unassigned) [98F] | 100 to 1000 nM | –
30 | COc1cncc2c1[C@]1(O)[C@H](O)[C@H](S(C)(=O)=O)[C@@H](c3ccccc3)[C@]1(c1ccc(C#N)cc1)O2 (single isomer, unassigned) [102F] | 100 to 1000 nM | –
31 | COc1cncc2c1[C@]1(O)[C@H](O)[C@H](CN(C)C)[C@@H](c3ccccc3)[C@]1(c1ccc(C#N)cc1)O2 (single isomer, unassigned) [103F] | – | < 100 nM
32 | COc1cncc2c1[C@]1(O)[C@H](O)[C@H](CN(C)C)[C@@H](c3ccccc3)[C@]1(c1ccc(C(F)F)cc1)O2 (single isomer, unassigned) [106F] | 100 to 1000 nM | –
33 | COc1cncc2c1[C@]1(O)[C@H](O)[C@H](CN(C)C)[C@@H](c3ccccc3)[C@]1(c1ccc(C(F)(F)F)cc1)O2 (single isomer, unassigned) [107F] | 100 to 1000 nM | –
34 | CN(C)C[C@@H]1[C@@H](O)[C@@]2(O)c3ncc(Cl)cc3O[C@@]2(c2ccc(C(F)F)cc2)[C@@H]1c1ccccc1 (single isomer, unassigned) [108F] | 100 to 1000 nM | –
35 | CN(C)C[C@H]1[C@@H](O)[C@@]2(O)c3ncc(Cl)cc3O[C@@]2(c2ccc(C(F)(F)F)cc2)[C@@H]1c1ccccc1 (single isomer, unassigned) [109F] | 100 to 1000 nM | –
36 | COc1cncc2c1[C@]1(O)[C@H](O)[C@H](CN3CCOCC3)[C@@H](c3ccccc3)[C@]1(c1ccc(C#N)cc1)O2 (single isomer, unassigned) [110F] | 100 to 1000 nM | –
37 | COc1cncc2c1[C@]1(O)[C@H](O)[C@H](CN(C)CC(F)F)[C@@H](c3ccccc3)[C@]1(c1ccc(C#N)cc1)O2 (single isomer, unassigned) [112F] | 100 to 1000 nM | –
38 | COc1cncc2c1[C@]1(O)[C@H](O)[C@H](CN3CCC(F)(F)CC3)[C@@H](c3ccccc3)[C@]1(c1ccc(C#N)cc1)O2 (single isomer, unassigned) [113F] | 100 to 1000 nM | –
39 | COc1cncc2c1[C@]1(O)[C@H](O)[C@H](CNCC(F)F)[C@@H](c3ccccc3)[C@]1(c1ccc(C#N)cc1)O2 (single isomer, unassigned) [115F] | 100 to 1000 nM | –
40 | COc1cncc2c1[C@]1(O)[C@@H](CO)C[C@@H](c3ccccc3)[C@]1(c1ccc(C#N)cc1)O2 (single isomer, unassigned) [120F] | < 100 nM | –
41 | COc1cncc2c1[C@]1(O)[C@H](O)[C@H](CN3CC(F)(F)C3)[C@@H](c3ccccc3)[C@]1(c1ccc(C#N)cc1)O2 (single isomer, unassigned) [122F] | 100 to 1000 nM | –
42 | COc1cncc2c1[C@]1(O)[C@H](O)[C@H](S(=O)(=O)N3CCOCC3)[C@@H](c3ccccc3)[C@]1(c1ccc(C#N)cc1)O2 (single isomer, unassigned) [126F] | 100 to 1000 nM | –
43 | COc1nc(C#N)cc2c1[C@]1(O)[C@H](O)[C@H](CN(C)C)[C@@H](c3ccccc3)[C@]1(c1ccc(C#N)cc1)O2 (single isomer, unassigned) [139F] | < 100 nM | –
44 | COc1nc(Cl)cc2c1[C@]1(O)[C@H](O)[C@H](CN(C)C)[C@@H](c3ccccc3)[C@]1(c1ccc(C#N)cc1)O2 (single isomer, unassigned) [140F] | < 100 nM | –
